Test results published in patent US6696495B2, “Treatment of disorders secondary to organic impairments” (Snowden Pharmaceuticals, LLC, priority 1998, dated 2004).
Read-outs that look alike come from different tables or passages of the source.

Assays:
[1] = tested on: Severe Atypical Psychosis; test: Case history 1, Sibutramine Patient No. 97; format: in vivo, human; conditions: sibutramine 10 mg orally three times a day, added to carbamazepine, quetiapine, valproic acid; person
[2] = tested on: Violence and Self-Laceration; test: Case history 2, Sibutramine Patient No. 3; format: in vivo, human
Protocol: 2. Violence and Self-Laceration (Problem No. 1) Sibutramine Patient No. 3
They were started on sibutramine 10 mg orally every morning for their violence, self-abuse and obesity.

[3] = tested on: Sexual Function, ADD, and Rage Outbursts; test: Case history 3, Sibutramine Patient No. 100; format: in vivo, human; conditions: sibutramine 10 mg twice a day
[4] = tested on: Tourette's Disease Tics, Violence, and ADHD; test: Case history 8, Sibutramine Patient No. 47; format: in vivo, human
[5] = tested on: Severe Post-Traumatic Stress Reaction
Protocol: Finally, this patient was taken off of fluoxetine 20 mg when sibutramine treatment was initiated.

[6] = tested on: Intracerebral Porencephalic Cyst With Oscillopsia; test: Case history 14, Sibutramine Patient No. 111; format: in vivo, human
Text: 14. Intracerebral Porencephalic Cyst With Oscillopsia (Problem No. 5) Sibutramine Patient No. 111
A person suffered a severe head injury in 1976 with a fractured skull, coma, and an intracerebral (porencephalic) cyst caused by the traumatic blockage of their cerebral spinal fluid in their brain. This cyst was repaired surgically with a brain ventricular—jugular vein shunt. This had permitted them to work continuously with concomitant treatment with carbamazepine, valproic acid, and dextroamphetamine until early 1998 when they began to suffer severe attacks of bizarrely altered vision, dizziness, ataxia, and confusion. The attacks progressed to several times per week, lasting 4-24 hours in duration. […] There is no known treatment for these attacks and they were therefore unable to drive or work safely. They were placed on total disability. They were started on 10 mg of sibutramine as needed for these oscillopsia attacks. […] After 2 months at the 5 mg tid dosage, the patient again noted a recurrence of oscillopsia on a 2-3 times weekly basis.

[7] = Overall clinical observations in the patients treated with sibutramine; format: in vivo, human
Text: The term sibutramine as used herein means compounds of sibutramine hydrochloride monohydrate, more specifically N,N-dimethyl-1-[1-(4-chlorophenyl)cyclobutyl]-3-methylbutylamine hydrochloride preferably in its monohydrate form, and enantiomers and analogues thereof, as described in U.S. Pat. Nos. 4,746,680, 4,929,629 and 5,436,272. Sibutramine is believed to inhibit reuptake of norepinephrine, serotonin and dopamine thereby intensifying their effects in the brain. Sibutramine is commercially available as MERIDIA®, Knoll Pharmaceutical Company, Mount Olive, N.J. Capsules are presently available with discrete dosages of 5, 10 and 15 mg for oral administration. The sibutramine is administered in a pharmaceutically active dose. The preferred dosage is about 5 mg three times a day but there is variation between patients for the best dose. It is believed that the cytochrome P450 system differs in individuals and the dose must be determined empirically in each patient. The effect of the cytochrome P450 system on metabolism of psychotropic drugs is discussed in “Intercom: The Experts Converse”, published by The Journal of Clinical Psychiatry, November 1995. […] It is possible that higher or lower doses can be used depending upon each individual. Therefore, more flexibility in available dosage is needed. Furthermore, means of administration such as injection, rectal suppository, or transdermal patches may be utilized. Finally, a long-acting slow-release means such as oral tablet or capsule would be the preferred route in view of the rapid metabolism noted (5 hour duration of action usually) in most of the patients.
Although the use of sibutramine has been described for the treatment of conditions such as obesity, depression, diabetic hyperglycemia, hyperlipidemia, senile dementia and related conditions, and Parkinson's disease, it has been discovered that sibutramine can be successfully used in treating other problems unrelated to these conditions. […] For example, patients with ADD previously treated with stimulants found it easier to eat when treated with sibutramine and gained weight. […] It was generally necessary to continue anti-depressant therapy along with the sibutramine therapy.
Above and beyond the known effects of sibutramine on serotonin, dopamine and norepinephrine activation, there is believed to be an effect of this medication on the endorphic opiate neurotransmitter system which is evident in the patients who have been relieved of pain, rage, anger, self-mutilation and particularly addiction to heroin. […] It would appear that sibutramine activates endorphins or, at the very least, modifies the endorphinergic opioid systems to promote serenity and lack of pain and stress, and to reduce craving for heroin. Such a mechanism which was previously unsuspected may have also contributed to the therapeutic effects of sibutramine herein described for PTSD, asocial behavior and fibromyalgic pain which have not been helped by serotonin, dopamine and norepinephrine potentiators. This is in contradistinction to the therapeutic effects of sibutramine on ADHD, chronic fatigue, and the symptoms of Tourette's and non-Tourette's diseases. Finally, a differentiation between the serotonin, dopamine and norepinephrine potentiation versus the opiate-like therapeutic effects of sibutramine may be made in terms of duration of action, whereas the serotonin, dopamine, norepinephrine agonist effects lasted in most patients for only 4-6 hours (therefore requiring tid dosage), the opiate effects appear to last all day and require only a single AM dosage.
These benefits were lost rapidly when either the patient was taken off sibutramine or when steroids, such as cortisone were concomitantly administered.

[8] = tested on: Tourette's Tics, Asocial Behavior, and Relief of Hyposexuality; conditions: sibutramine 5 mg three times a day
[9] = tested on: Non-Tourette's tics, obsessive-compulsive rituals, and attention deficit hyperactive disorder (ADHD)
[10] = tested on: frontal lobe executive function, ADHD, and hyposexuality

For `CC(C)CC(N(C)C)C1(c2ccc(Cl)cc2)CCC1.Cl` (stereo not drawn) [sibutramine, N,N-dimethyl-1-[1-(4-chlorophenyl)cyclobutyl]-3-methylbutylamine hydrochloride], the “hallucinations, confusion, paranoia, and anxiety” value [1] was “marked decrease in hallucinations, confusion, paranoia, and anxiety”, the “energy, seizures, violence and self-abuse” value ([2]; sibutramine 10 mg orally every) was “gained new energy, had fewer seizures, and was no longer violent or self-abusive” and the time to response ([2]; sibutramine 10 mg orally every morning) was “less than a week”. The “wear-off of effects after administration” value ([2]; single morning dose 10 mg) was 5 to 6 h, the “concentration and anger outbursts” value [3] was “able to concentrate better and had fewer and less severe anger outbursts” and the “sexual drive and interest” value ([3]; person) was “an increase in their sexual drive and interest”. For the same molecule, the “tics, aggressive outbursts, concentration” value ([4]; human, in vivo) was “rapidly relieved their tics, their aggressive outbursts, and helped their concentration”, the wear-off of effects ([4]; sibutramine 10 mg every morning) was “wore off quickly after noon with a rapid return of all symptoms” and the “tics, violence, concentration problems” value ([4]; sibutramine 10 mg three times daily) was “loss of verbal and motor tics, violence, and concentration problems”. For the same molecule, the depression ([5]; human, in vivo) was “became severely depressed despite the relief from PTSD”, the “PTSD symptoms and sedation at lower dosage” value ([5]; less than 1 mg once a day) was “provided relief again from their PTSD symptoms but without the sedation” and the side effects ([5]; one-half of the smallest capsule (5 mg), deficiency in P-450 cytochrome system enzymes) was “produced drowsiness, sugar craving, and weight gain”. The “PTSD reaction to thunder” value ([5]; sibutramine 10 mg in the morning, person) was “completely oblivious of their former psychotic fear of thunder”, the “symptoms after sibutramine was stopped” value ([5]; stopped after one and a half months) was “rapid return of the fear of thunder, sound and light sensitivity, exaggerated startle reflex, headaches, and nightmares of life and death situations” and the oscillopsia attacks ([6]; 10 mg of sibutramine as needed, person) was “appeared to help”. For the same molecule, the recurrence of oscillopsia ([6]; after 2 months at 5 mg tid) was 2-3 times weekly, the “oscillopsia attacks in the next four weeks” value ([6]; sibutramine 5 mg three times daily) was “only one such attack” and the oscillopsia attacks ([6]; sibutramine 10 mg tid) was “absence of attacks”. The highest dose ([7]; 15 mg 3 times daily) was 45 mg, the neurogenesis ([7]; believed, evidenced by increase in the hippocampus, enhanced mental and motor skills) was “induced neurogenesis” and the lowest effective dose ([7]; human, in vivo) was 0.25 mg daily. For the same molecule, the onset of improvement ([7]; human, in vivo) was “alleviated within minutes or hours of treatment”, the “duration of serotonin, dopamine, norepinephrine agonist effects” value ([7]; most patients) was 4 to 6 h and the depression ([7]; patients removed from anti-depressant medication) was “became depressed when removed from the anti-depressant medication and treated with sibutramine alone”. The “symptoms of Post Traumatic Stress” value ([7]; patients with Post Traumatic Stress) was “relieved the symptoms of Post Traumatic Stress”, the “duration of opiate effects” value ([7]; single AM dosage) was “last all day” and the duration of action ([7]; usually, in most of the patients) was 5 h. For the same molecule, the ADHD [8] was “his ADHD improved”, the “communication and social skills” value [8] was “their communication and social skills improved” and the “motor and vocal tics, obsessive compulsive component” value ([8]; child) was “the motor and vocal tics associated with Tourette's Disease were decreased as well as the obsessive compulsive component”. The “tics and OCD symptoms” value ([9]; sibutramine 5 mg tid, child) was “stopped both the tics and the OCD symptoms, but only for a few hours”, the “effect of missing a single dose” value ([9]; sibutramine 10 mg tid) was “the vocal and motor tics return immediately” and the sleep and appetite ([9]; sibutramine 10 mg tid) was “Sleep and appetite were not affected”. For the same molecule, the “tics and OCD symptoms” value ([9]; sibutramine 10 mg tid) was “free of symptoms throughout the day”, the concentration at school ([9]; sibutramine 10 mg tid, versus dextroamphetamine, methylphenidate, pemoline) was “better than with any of the analeptics” and the “sexual drive after radical prostatectomy” value ([10]; sibutramine) was “this problem of sexual drive was repaired”. For the same molecule, the “efficacy after dose decrease” value ([10]; sibutramine 5 mg bid, pemoline and methylphenidate discontinued) was “without a loss of efficacy”, the side effects ([10]; sibutramine 10 mg. bid) was “dry mouth and some insomnia” and the “concentration and ability to plan” value ([10]; sibutramine 10 mg. bid p.o. Person) was “immediate repair of concentration, and particularly their ability to plan and carry out these plans effectively”.
